Results reported in US4412996A, “Pyridoxine derivatives and related pharmaceutical compositions” (Crinos Farmacologica Spa, priority 1980, dated 1983).
Counter-ions that a name gives are not always drawn. Like-named read-outs stand apart in the source and are kept apart here.

Columns and labels:
[1] = Anti-inflammatory activity, carrageenin induced oedema (Winter et al.); type: in vivo, rat; settings: rat, in vivo; carrageenin 3 h; read-out: Therapeutical index LD50/ED50 (carrageenin 3h)
Excerpt: (§1) As regards the anti-inflammatory activity, the ED50 in the normal rat has been evaluated according to Winter et al. (Proc. Soc. Exp. Biol. Med., 111, 544, 1962).

rat [2] = test: as above; type: in vivo; settings: 3 h; for ED50: Rattus norvegicus, po, read-out: Carrageenin induced oedema (3 h) ED50; for Carrageenin induced oedema (3 h) ED50: 180 min
Excerpt: as §1

[3] = Analgesic activity (method of Randall and Selitto); type: in vivo; settings: for selectivity ratio: in vivo, Randall-Selitto 3 h, read-out: Therapeutical index LD50/ED50 (Randall-Selitto 3h); for ED50: po, read-out: Randall-Selitto (3 h) ED50
Excerpt: As regards the analgesic activity, the evaluation has been carried out according to the method of Randall and Selitto (Arch. Ing. Pharmacodyn., 111, 409, […]).

[4] = Ulcerogenic activity / gastric tolerability, UD50 in fasted rats; type: in vivo, rat; settings: rat, in vivo, po
Excerpt: (§2) The UD50 has been also calculated according to the aforesaid method of Litchfield and Wilcoxon.

[5] = Acute toxicity in the rat (method of Litchfield and Wilcoxon); settings: in vivo, po
Excerpt: (§3) In the following resuming table the results obtained for the esters of the Indomethacin are reported. In the determination of the acute toxicity, carried out in the rat, the method of Litchfield and Wilcoxon (J. Pharmacol. Exp. Therm., 96, 99, 1949) has been adopted.

[6] = Solubility of the product; type: physicochemical
rat [7] = test: Ulcerogenic activity / gastric tolerability, UD50 in fasted rats; type: in vivo; settings: for Gastric tolerability UD50 fasted 18 h / Gastric tolerability UD50 fasted 48 h: rat, in vivo, po
Excerpt: as §2

rat [8] = test: Acute toxicity in the rat (method of Litchfield and Wilcoxon); settings: in vivo, po
Excerpt: as §3

[9] = UD50 18 h, Randall-Selitto 3 h, read-out: Tolerability index UD50 (18h)/ED50 (Randall-Selitto 3 H)
[10] = UD50 18 h, carrageenin 3 h, read-out: Tolerability index UD50 (18 h)/ED50 (carrageenin 3 h)
[11] = UD50 48 h, Randall-Selitto 3 h, read-out: Tolerability index UD50 (48 h)/ED50 (Randall-Selitto 3 h)
[12] = UD50 48 h, carrageenin 3 h, read-out: Tolerability index UD50 (48 h)/ED50 (carrageenin 3 h)

Compound `COc1ccc2c(c1)c(CC(=O)O)c(C)n2C(=O)c1ccc(Cl)cc1` [Indomethacin, 1-(p-chlorobenzoyl)-2-methyl-5-methoxy-indol-3-acetic acid, reference compound] has a selectivity ratio [1] of 4.77, an ED50 (rat [2]) of 4.4 mg/kg and a selectivity ratio [3] of 15.8. For the same compound, the ED50 ([3]; 3 h) was 1.33 mg/kg, the selectivity ratio [4, 9] was 5.18 and the selectivity ratio [4, 10] was 1.57. It also gave a selectivity ratio [4, 11] of 2.59, a selectivity ratio [4, 12] of 0.78 and a TD50 at 18 h ([4]; fasted rats, per os, 18 h, read-out: Gastric tolerability UD50 fasted 18 h) of 6.9 mg/kg. For the same compound, the TD50 at 48 h ([4]; fasted rats, per os, 48 h, read-out: Gastric tolerability UD50 fasted 48 h) was 3.45 mg/kg and the LD50 ([5]; per os (head: mg/kg/os), * = insufficient sample) was 21 mg/kg.

With `COc1ccc2c(c1)c(CC(=O)OCc1cnc(C)c3c1COC(C)(C)O3)c(C)n2C(=O)c1ccc(Cl)cc1` [compound ex. 1(b), Hydrochloride of the (3,4-isopropylidene)-pyridoxine ester of 1-(p-chlorobenzoyl)-2-methyl-5-methoxy-indol-3-acetic acid] the selectivity ratio [1] was 8.39, the “Carrageenin induced oedema (3 h) ED50” value (rat [2]; normal rat, per os) was 10.13 mg/kg/os and the “Randall-Selitto (3 h) ED50” value ([3]; 3 h, per os, 180 min) was 2.66 mg/kg/os. The selectivity ratio [3] was 31.9, the “solubility in cold chloroform” value ([6]; cold chloroform) was “soluble” and the “solubility in hot N,N'-dimethylformamide” value ([6]; hot N,N'-dimethylformamide) was “poorly soluble”. The “solubility in hot ethanol” value ([6]; hot ethanol) was “soluble”, the solubility in water ([6]; water) was “insoluble” and the “Tolerability index UD50 (18h)/ED50 (Randall-Selitto 3 H)” value (rat [7]; UD50 18 h) was 12.59. For the same compound, the “Tolerability index UD50 (18 h)/ED50 (carrageenin 3 h)” value (rat [7]; UD50 18 h, carrageenin 3 h) was 3.30, the “Tolerability index UD50 (48 h)/ED50 (Randall-Selitto 3 h)” value (rat [7]; UD50 48 h) was 8.45 and the “Tolerability index UD50 (48 h)/ED50 (carrageenin 3 h)” value (rat [7]; UD50 48 h, carrageenin 3 h) was 2.22. The “Gastric tolerability UD50 fasted 18 h” value (rat [7]) was 33.50, the “Gastric tolerability UD50 fasted 48 h” value (rat [7]) was 22.50 and the “LD50, rat” value (rat [8]) was 85 mg/kg.

For `COc1ccc2c(c1)c(CC(=O)OCc1cnc(C)c3c1COC(C)(C)O3)c(C)n2C(=O)c1ccc(Cl)cc1` [compound ex. 1(c), (3,4-isopropylidene)-pyridoxine ester of 1-(p-chlorobenzoyl)-2-methyl-5-methoxy-indol-3-acetic acid], the “Carrageenin induced oedema (3 h) ED50” value (rat [2]; normal rat, per os) was 36.83 mg/kg/os, the ED50 ([3]; 3 h, per os) was 2.7 mg/kg and the selectivity ratio [4, 10] was 5.75. The selectivity ratio [4, 12] was 3.8, the “Tolerability index UD50 (18h)/ED50 (Randall-Selitto 3 H)” value (rat [7]; UD50 18 h) was 78.51 and the “Tolerability index UD50 (48 h)/ED50 (Randall-Selitto 3 h)” value (rat [7]; UD50 48 h) was 51.85. For the same compound, the “Gastric tolerability UD50 fasted 18 h” value (rat [7]) was 212.00, the “Gastric tolerability UD50 fasted 48 h” value (rat [7]) was 140.00 and the “LD50, rat” value (rat [8]) was > 200 mg/kg.

In the case of `COc1ccc2c(c1)c(CC(=O)OCc1cnc(C)c(O)c1CO)c(C)n2C(=O)c1ccc(Cl)cc1` [compound ex. 2, Pyridoxine ester of 1-(p-chlorobenzoyl)-2-methyl-5-methoxy-indol-3-acetic acid], the ED50 (rat [2]; normal rat, per os) is reported as 76 mg/kg, the ED50 ([3]; 3 h, per os) is reported as 3.37 mg/kg and the TD50 at 18 h ([4]; Gastric tolerability UD50 fasted 18 h) is reported as 530 mg/kg. For the same compound, the TD50 at 48 h ([4]; Gastric tolerability UD50 fasted 48 h) was 285 mg/kg, the selectivity ratio [4, 9] was 157 and the selectivity ratio [4, 10] was 6.97. The selectivity ratio [4, 11] was 84.6, the selectivity ratio [4, 12] was 3.75 and the mortality ([5]; 819 mg/kg, read-out: LD50, rat line: percent at 819 mg/kg) was 62.5%.
